From patent US8329739B2, “Phenylimidazole compounds” (Otsuka Pharmaceutical Factory, Inc., priority 2009, dated 2012)

Columns and labels:
[1] = Body weight gain-inhibiting effect in normal SD rats; format: in vivo; settings: Rattus norvegicus, po, 100 mg/kg orally every day for 5 days or 2 weeks, vs control group, read-out: Rate of inhibition of body weight gain (%)
Protocol: (§1) 8-week-old SD rats (Japan Charles River: average body weight of about 350 g) were used. 5% aqueous gum arabic suspension, which was prepared such that the dosage of a compound of the present invention was 100 mg/kg body weight, was orally administered to the experimental group in an amount of 5 ml/kg body weight. 5% aqueous gum arabic suspension (not containing any compounds of the present invention) was orally administered to the control group in an amount of 5 ml/kg body weight. The rats were grouped according to their body weight at 8 weeks of age such that each group had 5 rats. The test compounds were orally administered every day at a fixed time for 5 days or 2 weeks, starting when the rats were 9 weeks old. Body weight was regularly measured during the period of oral administration, and the body weight gain-inhibiting effect was observed. 4 hours after the final administration of the test compound, blood was collected from the vein, plasma was separated from the collected blood, and blood biochemical examinations (triglyceride, HDL-cholesterol) were carried out.
The rate of inhibition of body weight gain (%) was calculated from the measured body weights of rats in the control group and the experimental group, according to the following formula. […] Rate of inhibition of body weight gain (%)=[(mean value of the control group)−(mean value of the experimental group)]/(mean value of the control group)×100

[2] = Lipid-improving action in SD rats: blood biochemical examinations (triglyceride, HDL-cholesterol); format: in vivo; settings: Rattus norvegicus, po, 100 mg/kg orally every day for 5 days or 2 weeks, plasma 4 hours after final administration, vs control group, read-out: Rate of increase in HDL-cholesterol levels (%)
Protocol: as §1
Blood biochemical examinations of rats in the control group and the experimental group were performed. The rates of change (%) were calculated according to the following formulae from the measured values obtained from the blood biochemical examinations. […] Rate of decrease in triglyceride levels (%)=[(mean value of the control group)−(mean value of the experimental group)]/(mean value of the control group)×100 Rate of increase in HDL-cholesterol levels (%)=[(mean value of the experimental group)−(mean value of the control group)]/(mean value of the control group)×100

LPL (lipoprotein lipase) = biological target: T1, LPL (lipoprotein lipase) (Mus musculus, UniProt P11152); assay: Confirmation test of LPL activation effect in mouse skeletal muscle cells (C2C12 cells); format: cell-based; settings: 8 hours exposure, vs control group
T1 construct: endogenous in cells; host or cells: C2C12 cells, differentiated
T1 sequence (P11152 28-474): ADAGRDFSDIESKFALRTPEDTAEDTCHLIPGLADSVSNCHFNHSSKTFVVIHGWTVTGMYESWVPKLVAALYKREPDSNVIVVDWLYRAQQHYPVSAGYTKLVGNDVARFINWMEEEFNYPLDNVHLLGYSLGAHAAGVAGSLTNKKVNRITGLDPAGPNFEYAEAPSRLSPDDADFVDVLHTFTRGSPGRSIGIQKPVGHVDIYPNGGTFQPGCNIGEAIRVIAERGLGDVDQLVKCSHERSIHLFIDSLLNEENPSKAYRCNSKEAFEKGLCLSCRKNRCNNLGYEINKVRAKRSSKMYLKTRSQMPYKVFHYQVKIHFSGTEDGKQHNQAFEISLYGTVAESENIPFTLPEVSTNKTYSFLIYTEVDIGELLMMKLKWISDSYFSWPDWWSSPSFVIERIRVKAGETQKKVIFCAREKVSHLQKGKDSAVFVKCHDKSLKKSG
Method in brief: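 Differentiated human skeletal muscle myoblasts or mouse C2C12 cells were exposed to compound at 10 μM or 30 μM in 0.3% DMSO medium for 8 h, then LPL was released with heparin-containing Tris-HCl buffer (10 min, 37° C). Supernatant LPL activity was taken as the fluorescence increase 10–70 min after adding substrate; % increase is calculated versus the DMSO control mean.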

Compound	melting point [°C]	Rate of increase in LPL activity (LPL (lipoprotein lipase); amount of addition 10 μM) [%]	Rate of increase in LPL activity (LPL (lipoprotein lipase); amount of addition 30 μM) [%]	inhibition in vivo at 100 mg/kg [1] [%]	change in vivo at 100 mg/kg [2] [%]
COc1cc(-c2c[nH]c(-c3ccc(F)cc3)n2)ccc1OCc1ccc(Br)cc1F.Cl [Example 52]	228 to 233	–	–	6	36
COc1cc(-c2c[nH]c(-c3cccs3)n2)ccc1OCc1ccc(Br)cc1F [Example 67]	177 to 179	22	34	7	15
COc1cc(OCc2ccc(C#N)cc2)ccc1-c1c[nH]c(-c2cccc(C(F)(F)F)c2)n1.Cl [Example 74]	248 to 250	10	55	6	64
COc1cc(OCc2ccc(Br)cc2F)ccc1-c1c[nH]c(-c2ccc(C)cc2)n1 [Example 84]	160 to 162	53	97	8	187
COc1cc(OCc2ccc(Br)cc2F)ccc1-c1c[nH]c(-c2ccc(Cl)c(Cl)c2)n1 [Example 102]	260 to 262	44	88	–	–
COc1cc(OCc2ccc(Br)cc2F)ccc1-c1c[nH]c(-c2ccc(F)c(Cl)c2)n1 [Example 103]	237 to 243	30	92	–	–
COc1cc(OCc2ccccc2)ccc1-c1c[nH]c(-c2ccc(C)cc2)n1 [Example 109]	219 to 222	12	77	–	–
COc1cc(OCc2ccc(C#N)cc2)ccc1-c1c[nH]c(-c2ccc(C(C)(C)C)cc2)n1 [Example 116]	177 to 184	36	84	–	–
COc1cc(OCc2ccccc2)ccc1-c1c[nH]c(-c2cc(F)cc(F)c2)n1.Cl [Example 121]	247 to 249	113	270	–	–
COc1cc(OCc2ccccc2)ccc1-c1c[nH]c(-c2ccc(Cl)c(Cl)c2)n1.Cl [Example 124]	242 to 245	93	113	–	–
COc1cc(OCc2ccccc2)ccc1-c1c[nH]c(-c2cccc(C(F)(F)F)c2)n1 [Example 126]	159 to 162	99	297	–	–
COc1ccc(-c2nc(-c3ccc(OCc4ccccc4)cc3OC)c[nH]2)cc1.Cl [Example 128]	154 to 165	49	208	–	–
COc1cccc(-c2nc(-c3ccc(OCc4ccccc4)cc3OC)c[nH]2)c1.Cl [Example 130]	236 to 238	9	170	–	–
COc1cc(OCc2ccc(Cl)cc2F)ccc1-c1c[nH]c(-c2ccc(C(F)(F)F)cc2)n1 [Example 132]	165 to 166	35	213	–	–
COc1cccc(-c2nc(-c3ccc(OCc4ccc(Cl)cc4F)cc3OC)c[nH]2)c1.Cl [Example 134]	245 to 249	32	308	–	–

More lines, main results first:

melting point [°C]	Rate of increase in LPL activity (LPL (lipoprotein lipase); amount of addition 10 μM) [%]	Rate of increase in LPL activity (LPL (lipoprotein lipase); amount of addition 30 μM) [%]	Compound	inhibition in vivo at 100 mg/kg [1] [%]	change in vivo at 100 mg/kg [2] [%]
238 to 241	22	87	COc1cc(OCc2ccc(Cl)cc2)ccc1-c1c[nH]c(-c2ccsc2)n1.Cl [Example 70]	14	34
170 to 173	74	365	COc1ccc(-c2nc(-c3ccc(OCc4ccc(Cl)cc4)cc3OC)c[nH]2)cc1 [Example 104]	–	–
145 to 148	37	106	COc1cc(OCc2ccc(Cl)cc2)ccc1-c1c[nH]c(-c2ccc(Cl)c(Cl)c2)n1 [Example 110]	–	–
137 to 140	61	81	COc1cc(OCc2ccc(C#N)cc2)ccc1-c1c[nH]c(-c2ccc(Cl)c(Cl)c2)n1 [Example 111]	–	–
252 to 257	58	199	COc1cc(OCc2ccc(Cl)cc2)ccc1-c1c[nH]c(-c2ccc(F)c(F)c2)n1 [Example 112]	–	–
223 to 226	4	123	COc1cc(OCc2ccc(Cl)cc2)ccc1-c1c[nH]c(-c2cccc(Cl)c2)n1.Cl [Example 113]	–	–
154 to 157	62	88	COc1cc(OCc2ccc(Cl)cc2)ccc1-c1c[nH]c(-c2ccc(C(C)(C)C)cc2)n1 [Example 115]	–	–
233 to 241	80	102	COc1cc(OCc2ccc(Cl)cc2)ccc1-c1c[nH]c(-c2cc(Cl)cc(Cl)c2)n1.Cl [Example 118]	–	–
231 to 236	67	174	COc1cc(OCc2ccc(Cl)cc2)ccc1-c1c[nH]c(-c2cccc(C(F)(F)F)c2)n1.Cl [Example 119]	–	–
160 to 163	11	42	COc1cc(OCc2ccccc2)ccc1-c1c[nH]c(-c2ccc(Cl)cc2)n1 [Example 123]	–	–
259 to 260	63	236	COc1cc(OCc2ccc(Cl)cc2F)ccc1-c1c[nH]c(-c2ccc(F)cc2)n1.Cl [Example 133]	–	–
249 to 251	71	128	COc1cc(OCc2ccc(Cl)cc2F)ccc1-c1c[nH]c(-c2ccccc2)n1.Cl [Example 139]	–	–
